Values quoted from earlier work, collected in US8461106B2, “Biofilm prevention using lactoferrin” (The Trustees of the University of Pennsylvania, priority 2007, dated 2013).

Tested on: pseudomonas biofilms

gentamicin
MBEC for pseudomonas biofilms relative to MIC for planktonic pseudomonas: 60 fold
